Here are results for 2 compounds from publication doi:10.1101/2020.11.21.391136v1 (biorxiv, 2020).

Assay [1] addresses T1, A3R (Hs-A3R) (Homo sapiens, UniProt P0DMS8).
T1 sequence (P0DMS8 1-318): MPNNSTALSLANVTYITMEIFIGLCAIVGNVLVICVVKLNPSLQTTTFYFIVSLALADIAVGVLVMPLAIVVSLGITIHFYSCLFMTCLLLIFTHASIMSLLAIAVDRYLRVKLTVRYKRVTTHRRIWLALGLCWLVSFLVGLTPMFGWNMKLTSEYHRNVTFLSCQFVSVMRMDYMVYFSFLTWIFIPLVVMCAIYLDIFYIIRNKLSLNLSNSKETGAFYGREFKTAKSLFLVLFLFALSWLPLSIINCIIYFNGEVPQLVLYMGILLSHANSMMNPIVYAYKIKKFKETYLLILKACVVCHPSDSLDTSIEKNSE
The assay is described as follows: cell-based. Further details: species or system HEK293A.

Assay [2] deals with T2, A3R (Hs-A3R) (Homo sapiens, UniProt P0DMS8, L264M).
T2 sequence (P0DMS8 1-318 L264M): T1 sequence (P0DMS8 1-318) with L264M
The assay is described as follows: cell-based. Set-up: species or system HEK293A.

The target in assay [3] is T3, A3R (Hs-A3R) (Homo sapiens, UniProt P0DMS8, V169E).
T3 sequence (P0DMS8 1-318 V169E): T1 sequence (P0DMS8 1-318) with V169E
The assay is described as follows: cell-based. Further details: species or system HEK293A.

Assay [4] has as its target T4, A2BR (Homo sapiens, UniProt P29275).
T4 sequence (P29275 1-332): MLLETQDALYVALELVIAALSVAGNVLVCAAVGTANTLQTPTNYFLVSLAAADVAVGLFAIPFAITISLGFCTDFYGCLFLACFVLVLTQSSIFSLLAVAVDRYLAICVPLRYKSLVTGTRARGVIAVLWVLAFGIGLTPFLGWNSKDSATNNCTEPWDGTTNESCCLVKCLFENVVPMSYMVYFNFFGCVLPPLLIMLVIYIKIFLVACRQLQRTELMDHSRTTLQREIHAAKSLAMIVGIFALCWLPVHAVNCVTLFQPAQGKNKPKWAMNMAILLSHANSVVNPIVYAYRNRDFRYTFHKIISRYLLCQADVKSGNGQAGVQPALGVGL
The assay is described as follows: cell-based. Further details: species or system HEK293A.

The target of assay [5] is T5, A3R (Hs-A3R) (Homo sapiens, UniProt P0DMS8, I253T).
T5 sequence (P0DMS8 1-318 I253T): T1 sequence (P0DMS8 1-318) with I253T
The assay is described as follows: cell-based. Set-up: species or system HEK293A.

Assay [6] concerns the target T6, A3R (Hs-A3R) L264T (Homo sapiens, UniProt P0DMS8, L264T).
T6 sequence (P0DMS8 1-318 L264T): T1 sequence (P0DMS8 1-318) with L264T
The assay is described as follows: cell-based. Further details: species or system HEK293A.

Assay [7] concerns the target T7, A1R (Homo sapiens, UniProt P30542, T257I).
T7 sequence (P30542 1-326 T257I): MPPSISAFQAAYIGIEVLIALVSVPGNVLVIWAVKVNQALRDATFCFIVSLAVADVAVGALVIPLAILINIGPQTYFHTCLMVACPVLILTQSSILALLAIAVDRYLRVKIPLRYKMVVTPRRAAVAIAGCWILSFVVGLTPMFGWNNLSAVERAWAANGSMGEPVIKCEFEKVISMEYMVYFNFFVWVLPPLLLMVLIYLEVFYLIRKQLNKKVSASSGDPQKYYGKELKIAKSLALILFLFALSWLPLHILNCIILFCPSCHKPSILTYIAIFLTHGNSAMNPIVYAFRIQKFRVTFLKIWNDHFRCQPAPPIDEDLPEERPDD
The assay is described as follows: cell-based. The following applies: HEK293-A, read-out: Emax (%). Set-up: species or system HEK293A.

For assay [8], the target named is T4, A2BR. The assay is described as follows: TGF-alpha shedding assay, HEK293A. It is filed as cell-based.
In assay [9] the target is T8, A1R (Homo sapiens, UniProt P30542, E172V).
T8 sequence (P30542 1-326 E172V): T7 sequence (P30542 1-326 T257I) with E172V, I257T
The assay is described as follows: cell-based. Further details: species or system HEK293A. The following applies: HEK293-A, read-out: Emax (%).

The target of assay [10] is A2AR (Homo sapiens, UniProt P29274, M270L). The assay is described as follows: cell-based. Further details: species or system HEK293A. The following applies: HEK293-A, read-out: Emax (%).
Assay [11] addresses A2AR (Homo sapiens, UniProt P29274, E169V). Set-up: species or system HEK293A. The following applies: % AP-TGFα release, not normalised to a reference agonist.
For assay [12], the target named is T9, A2AR (Homo sapiens, UniProt P29274). The assay is described as follows: TGF-alpha shedding assay, HEK293A. Format: cell-based.
The target in assay [13] is T10, A1R (Homo sapiens, UniProt P30542).
T10 sequence (P30542 1-326): T7 sequence (P30542 1-326 T257I) with I257T
The assay is described as follows: TGF-alpha shedding assay, HEK293A. Format: cell-based.

In a further assay the target is T11, Ss-A3R (Sus scrofa, UniProt F1SBN8).
T11 sequence (F1SBN8 1-318): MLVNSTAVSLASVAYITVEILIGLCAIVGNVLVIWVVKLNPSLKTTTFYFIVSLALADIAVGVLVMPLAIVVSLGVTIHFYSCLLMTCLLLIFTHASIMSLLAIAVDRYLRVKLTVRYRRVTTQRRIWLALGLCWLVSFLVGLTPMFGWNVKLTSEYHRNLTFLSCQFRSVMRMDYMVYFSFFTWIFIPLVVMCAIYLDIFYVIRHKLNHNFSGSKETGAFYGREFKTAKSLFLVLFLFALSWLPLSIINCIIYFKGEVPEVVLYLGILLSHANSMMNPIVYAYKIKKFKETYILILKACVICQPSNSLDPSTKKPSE
The assay is described as follows: TGF-alpha shedding assay, HEK293A. Format: cell-based.

For assay [14], the target named is T12, A1R T270L (Homo sapiens, UniProt P30542, T270L).
T12 sequence (P30542 1-326 T270L): T7 sequence (P30542 1-326 T257I) with I257T, T270L
The assay is described as follows: cell-based. Set-up: species or system HEK293A.

Assay [15] deals with A2AR (Homo sapiens, UniProt P29274, T256I). The assay is described as follows: cell-based. Further details: species or system HEK293A. The following applies: HEK293-A, read-out: Emax (%).
The target of assay [16] is T10, A1R. Further details: species or system HEK293A. The following applies: % AP-TGFα release, not normalised to a reference agonist.
For assay [17], the target named is T9, A2AR. The assay is described as follows: cell-based. Further details: species or system HEK293A. The following applies: HEK293-A, read-out: Emax (%).
For assay [18], the target named is T6, A3R (Hs-A3R) L264T. The assay is described as follows: cell-based. Further details: species or system HEK293A. The source holds these as a separate data set.
For assay [19], the target named is T12, A1R T270L. The assay is described as follows: cell-based. Set-up: species or system HEK293A. The following applies: HEK293-A, read-out: Emax (%).
[20] abbreviates: % AP-TGFα release, not normalised to a reference agonist, agonist.

Residue numbers refer to the chain shown, from its start.

T9 sequence (P29274 whole entry): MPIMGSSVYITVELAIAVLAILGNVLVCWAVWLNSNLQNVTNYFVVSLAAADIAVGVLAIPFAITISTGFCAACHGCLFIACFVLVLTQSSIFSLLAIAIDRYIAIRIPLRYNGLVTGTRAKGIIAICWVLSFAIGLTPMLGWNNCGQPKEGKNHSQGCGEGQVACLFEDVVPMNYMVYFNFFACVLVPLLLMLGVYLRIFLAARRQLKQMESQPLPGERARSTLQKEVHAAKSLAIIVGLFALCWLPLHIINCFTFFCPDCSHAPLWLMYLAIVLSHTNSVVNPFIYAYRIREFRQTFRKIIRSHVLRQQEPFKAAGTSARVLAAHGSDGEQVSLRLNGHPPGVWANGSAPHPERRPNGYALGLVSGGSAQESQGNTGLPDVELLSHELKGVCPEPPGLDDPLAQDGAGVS
A2AR (Homo sapiens, UniProt P29274, E169V), sequence (P29274 whole entry E169V): as the sequence (P29274 whole entry) above, with E169V counted along it
A2AR (Homo sapiens, UniProt P29274, M270L), sequence (P29274 whole entry M270L): as the sequence (P29274 whole entry) above, with M270L counted along it
A2AR (Homo sapiens, UniProt P29274, T256I), sequence (P29274 whole entry T256I): as the sequence (P29274 whole entry) above, with T256I counted along it

With `Nc1ncnc2c1ncn2[C@@H]1O[C@H](CO)[C@@H](O)[C@H]1O` [adenosine], the “Emax (%)” value came to 39 ± 0.82% on A3R (Hs-A3R) [1] (setting [20]); 39 ± 2.6% at A3R (Hs-A3R) [2] (setting [20]); 14 ± 4.1% on A3R (Hs-A3R) [3] (setting [20]); 57 ± 1.2% at A2BR [4] (setting [20]); 37 ± 2.0% at A3R (Hs-A3R) [5] (setting [20]); 22 ± 0.84% at A3R (Hs-A3R) L264T [6] (setting [20]).
As usually defined, the Emax is the size of the effect at its maximum, as opposed to the concentration needed. As usually defined, the EC50 is the midpoint of the concentration-response curve. A lower EC50 goes with a more potent agent. With `CNc1ncnc2c1ncn2[C@@H]1O[C@H](CO)[C@@H](O)[C@H]1O` [m^6A], the Emax at A1R [7] turned out to be 42 ± 1.2%; on A1R [9], 32 ± 1.9%; at A3R (Hs-A3R) [1] (HEK293-A, read-out: Emax (%)), 43 ± 2.1%; on A2AR [10], 3.5 ± 0.68%; on A3R (Hs-A3R) [2] (HEK293-A, read-out: Emax (%)), 43 ± 1.7%; on A2AR [15], 30 ± 1.7%. Also, the Emax at A3R (Hs-A3R) [3] (HEK293-A, read-out: Emax (%)) stood at 22 ± 2%; on A2BR [4] (HEK293-A, read-out: Emax (%)) it was 76 ± 4.7%; on A3R (Hs-A3R) [5] (HEK293-A, read-out: Emax (%)) it was 41 ± 2.2%; on A2AR [17] it was 17 ± 0.57%; on A1R T270L [19], 15 ± 1.6%; at A3R (Hs-A3R) L264T [6] (HEK293-A, read-out: Emax (%)) it was 27 ± 2.2%. For the same compound, the EC50 on A2BR [8] worked out at 51000 ± 6400 nM; at A2AR [12], 13000 ± 1100 nM; at A1R [13], 840 ± 130 nM; on Ss-A3R it was 39 ± 3.1 nM; on A1R T270L [14], 540 ± 62 nM; at A3R (Hs-A3R) L264T [18], 6.4 ± 0.44 nM. The “Emax (%)” value stood at 29 ± 2.0% at A2AR [11] and 17 ± 2.2% on A1R [16].
